Reference: patent US5567725A, “Substituted cyclohexanol esters, their use for treating diseases, and pharmaceutical preparations” (Hoechst Aktiengesellschaft, priority 1994, dated 1996)

What was measured:
[1] = molecular target: T1, glucose-6-phosphatase system (Rattus norvegicus, UniProt F7EWB7); experiment: enzyme test using liver microsomes: phosphate liberated from glucose-6-phosphate; format: biochemical, male Wistar rats; conditions: rat liver microsome fraction; glucose-6-phosphate 1 mmol/l; HEPES pH 7.0; room temperature, 20 minutes
T1 construct: from tissue; host or cells: liver microsomes, male Wistar rats
T1 sequence (F7EWB7 1-429): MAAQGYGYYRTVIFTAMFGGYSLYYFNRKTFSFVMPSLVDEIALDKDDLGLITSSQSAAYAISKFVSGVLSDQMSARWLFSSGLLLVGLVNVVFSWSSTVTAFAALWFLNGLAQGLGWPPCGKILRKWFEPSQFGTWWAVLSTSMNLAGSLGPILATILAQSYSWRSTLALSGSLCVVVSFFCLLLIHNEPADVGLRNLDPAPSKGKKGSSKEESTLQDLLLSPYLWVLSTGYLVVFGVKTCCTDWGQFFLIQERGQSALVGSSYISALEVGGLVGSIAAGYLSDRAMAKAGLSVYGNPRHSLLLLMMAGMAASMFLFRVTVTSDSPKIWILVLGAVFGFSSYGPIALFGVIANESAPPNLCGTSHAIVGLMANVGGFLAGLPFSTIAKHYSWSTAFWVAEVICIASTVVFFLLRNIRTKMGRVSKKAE
Experimental: The effect of the novel compounds on the glucose-6-phosphatase system was investigated in an enzyme test using liver microsomes.
0.1 ml of test mixture contained glucose-6-phosphate (1mmol/l), the test substance, 0.1 mg of microsome fraction and 100 mmol/l HEPES buffer (4-(2-hydroxyethyl)piperazine-1-ethanesulfonic acid), pH 7.0. The reaction was started by adding the enzyme. After proceeding at room temperature for 20 minutes, the reaction was stopped by adding 0.2 ml of phosphate reagent. The sample was incubated at 37° C. for 30 minutes and the absorption (A) of the blue color was then measured at 570 nm.

glucose-6-phosphatase = conditions: literature statement; cited from earlier work

Row | IC50 [1] | Structure (SMILES) | inhibition of glucose-6-phosphatase (in words) (glucose-6-phosphatase)
1 | 0.3 µM | O=C(/C=C(/c1ccccc1)n1cnc2ccccc21)O[C@@H]1C[C@](OC[C@@H]2C[C@@H]2c2ccc(Cl)cc2)(C(=O)NS(=O)(=O)c2ccc3ccccc3c2)C[C@@H](O)[C@H]1O [Compound 9] | –
2 | 0.8 µM | O=C(/C=C(/c1ccccc1)n1cnc2ccccc21)O[C@@H]1C[C@](OC[C@@H]2C[C@@H]2c2ccc(Cl)cc2)(c2nnn[nH]2)C[C@@H](O)[C@H]1O [Compound 19] | –
3 | – | O=C(O)c1cc(SSc2ccc([N+](=O)[O-])c(C(=O)O)c2)ccc1[N+](=O)[O-] [5,5'-dithiobis-2-nitrobenzoic acid] | non-specific inhibitors
4 | – | O=C(CCc1ccc(O)cc1)c1c(O)cc(O)cc1O[C@@H]1O[C@H](CO)[C@@H](O)[C@H](O)[C@H]1O [phlorrhizin] | non-specific inhibitors
5 | – | S=C=Nc1ccccc1C=Cc1ccccc1N=C=S [2,2'-diisothiocyanatostilbene] | non-specific inhibitors
6 | – | CC(=O)Oc1ccccc1C=Cc1ccccc1N=C=S [2-isothiocyanato-2'-acetoxystilbene] | non-specific inhibitors
7 | 0.02 µM | CS(=O)(=O)NC(=O)C1(OCC2CC2c2ccc(Cl)cc2)CC(O)C(O)C(OC(=O)C=C(c2ccccc2)n2cnc3ccccc32)C1 (stereo not shown) [Compound 4] | –
